Results taken from patent publication US7067273B2, “Peptide substrates of a proteolytic ADAM33 polypeptide and assays using the same” (Schering Corporation, priority 2002, dated 2006).

Assays:
[1] = target: T1, proteolytic ADAM33 polypeptide (Homo sapiens, UniProt Q9BZ11); test: FRET assay for inhibition of the proteolytic activity of a proteolytic ADAM33 polypeptide; assay type: biochemical
T1 construct: The presence of imidazole facilitated the separation of the prodomain from the catalytic domain; made in house; host or cells: Drosophila melanogaster S2 cells (pMT/Bip/V5-His-C, secreted)
T1 sequence (Q9BZ11 204-409): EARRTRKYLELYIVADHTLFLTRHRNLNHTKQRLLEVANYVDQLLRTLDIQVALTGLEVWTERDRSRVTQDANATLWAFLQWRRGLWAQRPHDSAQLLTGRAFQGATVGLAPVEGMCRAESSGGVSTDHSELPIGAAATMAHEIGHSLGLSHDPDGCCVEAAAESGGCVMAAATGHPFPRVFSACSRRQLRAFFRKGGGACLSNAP
Experimental: A FRET assay may also be used to determine the cleavage of a compound by a proteolytic ADAM33 polypeptide. At room temperature, in a total reaction volume of 100 μL per well in a 96 well plate, add 50 μL of 2× Assay Buffer (40 mM HEPES, pH 7.5, 1.0 M NaCl; 1× Assay Buffer being 20 mM HEPES, pH 7.5, 0.5 M NaCl), followed by 25 μL of 100 μM substrate, e.g., SEQ ID NO: 14 (K(Dabcyl)YEVAHQKLAE(Edans)K-OH), and lastly 25 μL of 40 nM a proteolytic ADAM33 polypeptide in Enzyme Dilution Buffer 40 mM HEPES, pH 7.5. The reaction starts after the enzyme is added and is assayed at room temperature for 15–20 minutes by reading the relative fluorescence unit.
For High throughput screening, the FRET assay is performed similarly to that stated above, but with Assay Buffer that is also composed of 0.2 mg/ml BSA (1× Assay Buffer being 20 mM HEPES, pH 7.5, 0.5 M NaCl, 0.2 mg/ml BSA). In addition, the substrate used has a fluorescent donor and an acceptor at either end of the peptide, e.g., SEQ ID NO: 18 ((Cy5Q)WEVAH*QKLAC(Cy3B)K). Lastly, the reaction is incubated at room temperature for 3 hours and then stopped by adding 10 μL EDTA (11 mM). To measure the proteolytic activity of the proteolytic ADAM33 polypeptide on the substrate, the endpoint (relative fluorescence unit) is read using the appropriate excitation and emission wavelengths (e.g., for Cy5Q and Cy3B, 540 nm and 580 nm, respectively). […]

[2] = target: T1, proteolytic ADAM33 polypeptide; test: Proteolytic activity assay: cleavage of peptide substrates by a proteolytic ADAM33 polypeptide (HPLC); assay type: biochemical; settings: fold versus SEQ ID NO: 8
Description: The proteolytic activity assay consists of a substrate, preferably at a micromolar to submicromolar concentration, and a proteolytic ADAM33 polypeptide, preferably at a submicromolar concentration, in a benign buffered solution at pH 7–9, more preferably around pH 7.5–8.0. This assay may be set-up to monitor proteolytic activity of a proteolytic ADAM33 polypeptide continuously over a time span of minutes to hours in a 96-well or 384-well format. Alternatively, this assay may be set up to allow an elapse of time span of minutes to hours before the proteolytic activity is quenched and analyzed following acidification to under pH 4 or addition of an excess amount of zinc chelators (e.g., EDTA).
For example, an ADAM33 substrate derived from amyloid percursor protein to assay the proteolytic activity of a proteolytic ADAM33 polypeptide. The cleavage site in the above-mentioned substrate is indicated by a hyphen (i.e., the cleavage site is the scissile bond being between the second histidine and the adjacent glutamine). One particular set of assay conditions contains 25 nM of the proteolytic ADAM33 polypeptide and 25 μM substrate. […] The rate of reaction is measured over a defined time period (e.g., for 1 hour at room temperature) and then stopped. Product formation can be quantified at 214 nm by HPLC using a reverse phase column to separate the substrate from the products. […]

Compound	inhibition of the proteolytic activity of a proteolytic ADAM33 polypeptide (in words) [1]	cleavage rate relative to the 10-mer truncated form of APP28 (SEQ ID NO: 8) [2]
CNC(=O)[C@@H](NC(=O)[C@H](CC(C)C)[C@H](O)C(=O)NO)C(C)(C)C [marimastat]	identified as an inhibitor	–
Ac-Tyr-Glu-Val-Ala-His-Gln-Lys-Leu-Val-Phe-NH2 (Ac-YEVAHQKLVF-NH2) [SEQ ID NO: 13, peptide substrate, code P5P5′, Ac-YEVAH*QKLVF-NH2]	–	seventeen times greater
